Measured values reported in patent US20030149306A1, “Process for the preparation of polymorph of 4-(aryl)-1,2,3,4-tetrahydro-1-naphthale-namine derivative” (priority 2000, published 2003).
“Also recorded” adds a separate entry of the source. Where a name gives a salt, the structure may show the parent alone. Values belong to the compound of their own block, whether it stands above or below them.

Assays:
[1] = as compared to Form I; cited from earlier work
[2] = from a pharmaceutical formulation; cited from earlier work
[3] = compared among Forms I to V; cited from earlier work
[4] = solid-state stability of Form V (Infrared spectrum KBr and X-ray diffractogram) under storage, grinding and heating; type: physicochemical
Experimental: For example, it was stable for 3 months at 40° C. and 75% relative humidity or when subjected to grinding in a pestle and mortar or when heated upto 140° C. for 3 hours.
No change in Infrared spectrum (KBr) and X-ray diffractogram was observed after 3 months at 40° C. and 75% relative humidity or when subjected to grinding in a pestle and mortar or when heated upto 140° C. for 3 hours.

SMILES: CN[C@H]1CC[C@@H](c2ccc(Cl)c(Cl)c2)c2ccccc21 [Example T1, (1S, 4S) N-methyl-4-(3,4-dichlorophenyl)-1,2,3,4-tetrahydro-1-naphthalenamine]
bioavailability [1]: much-improved bioavailability

SMILES: CN[C@H]1CC[C@@H](c2ccc(Cl)c(Cl)c2)c2ccccc21 [Form I, hydrochloride salt of (1S,4S) N-methyl-4-(3,4-dichlorophenyl)-1,2,3,4-tetrahydro-1-naphthalenamine]
dissolution rate with respect to the desired bioavailability [2]: dissolves too slowly
thermodynamic stability among crystalline forms [3]: most thermodynamically stable form; also recorded: most stable crystalline form

stability (change in Infrared spectrum (KBr) and X-ray diffractogram) ([4]; 3 months at 40° C. and 75% relative humidity): stable
stability (change in Infrared spectrum (KBr) and X-ray diffractogram) ([4]; 3 months at 40° C. and 75% relative humidity, listed as Example 1): No change
stability (change in Infrared spectrum (KBr) and X-ray diffractogram) ([4]; heated upto 140° C. for 3 hours): stable
stability (change in Infrared spectrum (KBr) and X-ray diffractogram) ([4]; heated upto 140° C. for 3 hours, listed as Example 1): No change
stability (change in Infrared spectrum (KBr) and X-ray diffractogram) ([4]; subjected to grinding in a pestle and mortar): stable
stability (change in Infrared spectrum (KBr) and X-ray diffractogram) ([4]; subjected to grinding in a pestle and mortar, listed as Example 1): No change
SMILES: CN[C@H]1CC[C@@H](c2ccc(Cl)c(Cl)c2)c2ccccc21 [Form V, hydrochloride salt of (1S,4S) N-methyl-4-(3,4-dichlorophenyl)-1,2,3,4-tetrahydro-1-naphthalenamine]
